The record followed here is publication PMC11207111, “Assessment of the Activity of Nitroisoxazole Derivatives against Trypanosoma cruzi” (Molecules, 2024).

As a reminder, the IC50 is the concentration that gives 50% inhibition. As a reminder, the melting point is the temperature, or range, at which the solid turns liquid.

Data set [1] can be described thus: Cyclic voltammetry (reduction of the nitro group). In kind it is physicochemical. On the set-up: key to −EpcI / −EpcII / −EpaII / −EpaI: potentials in V vs Ag/AgCl; |ΔEp|: unit not given here. The following applies: cyclic voltammetry at 2.0 V/s. The text has this:
The chemistry mechanism of reduction in nitroisoxazole derivatives was investigated using cyclic voltammetry.
The peak near −1.32 V corresponds to a quasi-reversible one-electron transfer, according to the criteria of Nicholson–Shain [26] (Table 1), attributable to the species −NO2/NO2.− . The latter species stable anion radical at room temperature. […] An irreversible peak at −0.93 V to the mono-electronic transfer −HNO2/HNO2.− is observed, coupled with a chemical reaction associated with […] of the formed radical. This was evidenced by the addition of NaOH (1 M), which caused a decrease in the Ic peak (Figure 2c).
As previously described, an irreversible signal assigned to hydroxylamine oxidation to a nitroso derivative is also observed for N-acylhydrazones organometallic compounds with a pendant 5-nitrofuryl group. […] Compound 7, which has the least negative reduction potential, can be attributed to introducing a nitro group in the para position of the nitroisoxazole ring. This effect can also be observed in derivatives containing halogens in the same position.
Electrochemical characterization of the new compounds was performed through cyclic voltammetry (CV) on a 693 VA Metrohm instrument (Tokyo, Japan) equipped with a 694 VA Stand converter and 693 VA processor. Potentials were recorded against the Ag/AgCl reference electrode; a hanging drop of mercury (HDME) was used as a working electrode, and platinum was used as an auxiliary electrode. Tetrabutylammonium perchlorate (TBAP, 0.1 M) in DMSO was used as a supporting electrolyte under an N2 atmosphere at room temperature. Using Nicholson´s procedure, the Ipa/Ipc values (RNO2/RNO2^−) were measured from each cyclic voltammogram with a scan rate between 0.1 and 2.5 V/s.

A short description of data set [2]: ORAC-FL antioxidant capacity. The following applies: relative to Trolox; phosphate buffer 75 mM, pH 7.4, 37 °C. The protocol: To corroborate the generation of the nitro radical, the antioxidant capacity of the series under study was determined by ORAC-FL methodology, employing a fluorescent probe to capture oxygen-centered radicals (Table 2). The ORAC-FL values of the studied compounds are close to the reference value of Trolox, indicating a low antioxidant capacity. For compounds (1-3), the presence of amino substituents decreases antioxidant activity due to their […] characteristics, preventing the presence of labile hydrogens. […] Compounds 4 and 10 present similar ORAC indexes as aromatic rings with high electron density insert the transfer of labile protons. Antioxidant capacity was determined using the ORAC-fluorescence methodology (ORAC-FL). The analysis used a 96-well white polystyrene plate reader (EnSpire multimode PerkinElmer, Waltham, MA, USA). The reaction was carried out in phosphate buffer (75 mM, pH 7.4). […] A blank with FL and AAPH, using dimethyl sulfoxide instead of the antioxidant solution, was used in each assay. […] The inhibitor capacity was expressed as ORAC-FL values and quantified by integrating the area under the curve (AUCNET). All reaction mixtures were prepared in triplicate, and at least three independent assays were performed for each sample. The area under the fluorescence decay curve (AUC) was calculated by integrating the fluorescence decay where F0 is the initial fluorescence read at 0 min, and F is the fluorescence read at the time. The AUCNET corresponding to the sample was calculated by subtracting the AUC corresponding to the blank. Data were processed using Origin […].5 SR2 (San Francisco, CA, USA). The ORAC-FL indices were calculated according to the following Equation (1): (1) ORAC-[…]]

Data set [3] has as its system epimastigote of T. cruzi Dm28. Briefly: Trypanocidal activity (MTT) on epimastigotes. It counts as cell-based. The following applies: Trypanosoma cruzi; for IC50: T. cruzi Dm28, 24 h, read-out: IC50 T. cruzi E (epimastigote); for killing at 100 µM: 24 h, n.a = not active, read-out: % T. cruzi Epimastigote (trypanocidal effect). The method, then: As a preliminary step, a study of nitroisoxazole derivatives on the epimastigote form of T. cruzi was performed. Despite the epimastigote form not being a clinical form present in mammals, its easy handling has allowed screening for the trypanocidal activity of various compounds. It is worth noting that, during the intracellular life cycle of the parasite, a form similar to the epimastigote, which is biochemically and morphologically identical to the form present in the vector, has been described. […] RPMI 1640 medium) for 24 h. […] The effects of the compounds on trypomastigote and Vero cell viability were evaluated by tetrazolium salt reduction assay (MTT). […] The plates were kept overnight at 37 °C (28 °C for epimastigotes), and the optical density (OD) was determined using a 96-well microplate reader (Vantaa, Finland) at 570 nm. Under these conditions, the OD is directly proportional to each well’s viable number of cells. The experiments were performed in triplicate across three different assays.

For data set [4], the system named is trypomastigote of T. cruzi Dm28. The data set is described as follows: Trypanocidal activity (MTT) on trypomastigotes. It counts as cell-based. The conditions noted are these: Trypanosoma cruzi; for killing at 100 µM: 24 h, n.a = not active, read-out: % T. cruzi Trypomastigote (trypanocidal effect); for IC50: T. cruzi Dm28, 24 h. The protocol:
As a preliminary step, a study of nitroisoxazole derivatives on the epimastigote form of T. cruzi was performed. Despite the epimastigote form not being a clinical form present in mammals, its easy handling has allowed screening for the trypanocidal activity of various compounds. It is worth noting that, during the intracellular life cycle of the parasite, a form similar to the epimastigote, which is biochemically and morphologically identical to the form present in the vector, has been described. […] This is consistent with studies by Fonseca-Berzal et al. […] Additionally, compounds with higher activity have aromatic rings as substituents for nitroisoxazoles, confirming what was described Do […] [40]. […] It has also been determined that the presence of an isoxazole is essential for activity, as its aromatic structure contains a weak nitrogen-oxygen bond that, under different reaction conditions, can undergo ring cleavage, increasing activity. The results obtained on epimastigotes cannot be conclusive for determining potential Chagas agents, so conducting studies on the infective, extracellular, non-replicative trypomastigote form of T. cruzi present in humans is essential. […] RPMI 1640 medium) for 24 h. […] The effects of the compounds on trypomastigote and Vero cell viability were evaluated by tetrazolium salt reduction assay (MTT). […] The plates were kept overnight at 37 °C (28 °C for epimastigotes), and the optical density (OD) was determined using a 96-well microplate reader (Vantaa, Finland) at 570 nm. Under these conditions, the OD is directly proportional to each well's viable number of cells. The experiments were performed in triplicate across three different assays.

Data set [5] deals with Vero mammalian cells. The data set is described as follows: Cytotoxicity (MTT) on Vero cells. It counts as cell-based. The following applies: Chlorocebus sabaeus, 24 h. The method, then:
Additionally, the cytotoxicity of the compounds on VERO mammalian cells was assessed (Table 4). […] It is observed that the majority of the derivatives present considerable cytotoxicity. […] RPMI 1640 medium) for 24 h. […] The effects of the compounds on trypomastigote and Vero cell viability were evaluated by tetrazolium salt reduction assay (MTT). […] The plates were kept overnight at 37 °C (28 °C for epimastigotes), and the optical density (OD) was determined using a 96-well microplate reader (Vantaa, Finland) at 570 nm. Under these conditions, the OD is directly proportional to each well’s viable number of cells. The experiments were performed in triplicate across three different assays.

Data set [6] has as its system T. cruzi trypomastigotes. The data set is described as follows: Generation of ROS (DCFH2-DA fluorescent probe). The conditions noted are these: 100 µM, 40 min, vs control without compound. It counts as cell-based, Trypanosoma cruzi. The method, then:
To generate radical species on T. cruzi trypomastigotes, intracellular free radicals were determined using the fluorescent probe dichlorofluorescein (DCF).
The cultures were incubated with a 20 µM DCFH2-DA solution for 15 min at 28 °C. Then, they were centrifuged at 3500 rpm and washed 2 times with phosphate buffer saline (PBS) pH 7.4. Cells loaded with DCFH2-DA were transferred to a Nunc® fluorescence 96-well plate (Thermo Fisher Scientific Inc., Waltham, MA, USA), where the nitroisoxazoles derivates were added at 100 µM. Fluorescence (exi: 488 nm, emi: 528 nm) was recorded for 40 min in a BioTek (Winooski, VT, USA) Synergy HT spectrofluorometer. The area under increase curves over time was determined using Oring 8 software, with areas normalized to control. Results are the means ± SD of three independent experiments.

Some results are limits rather than exact numbers.

Compound `Cc1noc(/C=C/c2cn(-c3ccc(Cl)cc3)c3ccccc23)c1[N+](=O)[O-]` [Compound 13, (E)-5-(2-(1-(4-Chlorophenyl)-1H-indol-3-yl)vinyl)-3-methyl-4-nitroisoxazole] returned a melting point of 217 to 220 °C. Further, in data set [1], the Ipa/Ipc is recorded as −0.41 and the “|ΔEp|” value is listed as 90. Further, in data set [1] (DMSO, 0.1 M TBAP, vs Ag/AgCl), the “−EpaII” value is 0.90, the “−EpcI” value is 0.75 and the “−EpcII” value came out at 0.99. The “ORAC-FL Index” value in data set [2] is recorded as 0.4 ± 0.1. Moreover, in data set [3], the half-inhibitory concentration (IC50) is above 400 µM. Besides, in data set [4], the killing at 100 µM is 14 ± 3% and the IC50 was above 400 µM. This compound also returned an IC50 in data set [5] of 102 ± 6 µM. In addition, the “ROS generation (DCF fluorescence intensity)” value (“ROS generation” for short) in data set [6] was “did not show ROS generation”.

The compound `Cc1noc(/C=C/c2cccc(Br)c2)c1[N+](=O)[O-]` [Compound 16, (E)-5-(3-Bromostyryl)-3-methyl-4-nitroisoxazole] yielded a melting point of 174 to 177 °C. In addition, in data set [1] (DMSO, 0.1 M TBAP, vs Ag/AgCl), the “−EpcI” value is on record as 0.78 and the “−EpcII” value was 1.41. In data set [2], the “ORAC-FL Index” value is recorded as 0.54 ± 0.07. In addition, in data set [3], the killing at 100 µM is 19 ± 3% and the half-maximal inhibitory concentration (IC50) is above 400 µM. In addition, in data set [4], the killing at 100 µM is 22 ± 6% and the half-maximal inhibitory concentration (IC50) was above 400 µM. Moreover, in data set [5], the IC50 is 141 ± 4 µM. The “ROS generation” value in data set [6] is on record as “did not show ROS generation”.

Turning to `Cc1noc(/C=C/c2ccc(Br)cc2)c1[N+](=O)[O-]` [Compound 17, (E)-5-(4-Bromostyryl)-3-methyl-4-nitroisoxazole], the melting point was 195 to 198 °C. In addition, in data set [1] (DMSO, 0.1 M TBAP, vs Ag/AgCl), the “−EpcI” value stood at 0.81 and the “−EpcII” value was 1.53. The “ORAC-FL Index” value in data set [2] worked out at 0.4 ± 0.2. For the same compound, in data set [3], the killing at 100 µM came to 27 ± 1% and the IC50 was above 400 µM. Moreover, in data set [4], the killing at 100 µM was 15 ± 5% and the IC50 is above 400 µM. Also, the IC50 in data set [5] was above 400 µM. Besides, the “ROS generation” value in data set [6] is reported as “did not show ROS generation”.
